We go through 11 molecules from patent publication US4758566A, “2-(1-piperazinyl)-4-substituted phenylquinoline derivatives, processes for the preparation thereof, and pharmaceutical composition containing the same” (Dainippon Pharmaceutical Co., Ltd., priority 1984, dated 1988).

Assay [1] relates to ulceration induced by exposure to stress (restraint and water immersion) in rats. Description: Effect on the ulceration induced by exposure to stress (restraint and water immersion) in rats, Test 2. The assay is classed as in vivo, rat (male Wistar). The following applies: for inhibition in vivo at 10 mg/kg / Ulcer index: stress-induced ulcer. How it is done: Effect on the ulceration induced by exposure to stress (restraint and water immersion) in rats The effect evaluated by this test is considered to be fairly well correlative to inhibitory effect on gastric acid secretion. Male Wistar rats weighing about 200 g were used in groups of 5 animals each. According to the method of Takagi et al. [cf. Japan. […] After 20 hours, the animals were taken out from the water bath and sacrificed under ether anesthesia, and the stomachs were removed. The stomach was inflated with 13 ml of physiological saline and placed in a 5% formalin solution for 5 minutes. After washing with physiological saline, the stomach was cut along the greater curvature and the length (mm) of each lesion in the glandular portion was measured using a dissecting microscope (×12). The sum of the length (mm) of each lesion in a stomach was indicated as an ulcer index. The inhibitory rate was determined by comparing the ulcer index in drug-treated groups with that in control group. Test compounds were administered orally 30 minutes before the immersion. In the control group, a vehicle (a 0.5% tragacanth solution) was administered orally.

Assay [2] has as its system hypothermia induced by reserpine. Description: Antireserpine activity (antagonistic effect on hypothermia induced by reserpine), Test 4. It counts as in vivo, mouse (male ddY). The following applies: mouse. The method, then: Antireserpine activity (antagonistic effect on hypothermia induced by reserpine)
This test was carried out according to the method of Askew [cf. Life Sci., 2, 725 (1963)].
Male ddY mice weighing 22 g to 27 g were used in groups of 5 animals each. Test compounds were administered orally to the animals, and immediately 5 mg/kg of reserpine was injected intraperitoneally. Rectal temperature of each mouse was measured 4 hours later with a thermistor (Shibaura Electric, BMG III-130). The inhibitory rate was determined by comparing the fall of rectal temperature in drug-treated groups with that in control group. In the control group, a vehicle (a 0.5% tragacanth solution) was administered orally.

Assay [3] has as its system ulceration induced by ethanol in rats. Description: Effect on the ulceration induced by ethanol in rats (gastric cytoprotection activity), Test 1. It counts as in vivo, rat (male Wistar). The following applies: for Ulcer index / inhibition in vivo at 10 mg/kg: ethanol-induced ulcer. How it is done: Effect on the ulceration induced by ethanol in rats (gastric cytoprotection activity) This test was carried out according to the method of Robert [cf. […] Male Wistar rats weighing 190 g to 200 g were fasted for 24 hours and then given orally 1 ml of absolute ethanol. After 1 hour, the animals were sacrificed under ether anesthesia, and the stomachs were removed and cut along the greater curvature. The length (mm) of each lesion in the glandular portion was measured using a dissecting microscope (×12). The sum of the length (mm) of each lesion in a stomach was indicated as an ulcer index. The inhibitory rate was determined by comparing the ulcer index in drug-treated groups with that in control group. Test compounds were administered orally 30 minutes before the administration of ethanol. In the control group, a vehicle (a 0.5% tragacanth solution) was administered orally.

For assay [4], the system named is ulceration induced by pylorus-ligation (Shay ulcer) in rats. The experiment in a line: Effect on the ulceration induced by pylorus-ligation (Shay ulcer) in rats, Test 3. The assay is classed as in vivo, rat (male Wistar). The following applies: Shay ulcer, rat; for Ulcer index: index of 0 to 5. How it is done:
Effect on the ulceration induced by pylorus-ligation (Shay ulcer) in rats […] The portion between pylorus and duodenum of each rat was ligated under ether anesthesia according to the method of Shay et al. […] Each of the animals was then allowed to stand abstained from food and water in a cage. After 18 hours, the animals were sacrificed under ether anesthesia, and the stomachs were removed and cut along the greater curvature. […] 0: no lesion 1: hemorrhage or erosion […] The inhibitory rate was determined by comparing the ulcer index in drug-treated groups with that in the control group. […] Test compounds were administered orally 30 minutes before the ligation. In the control group, a vehicle (a 0.5% tragacanth solution) was administered orally.

Where [5] appears, read: po, 20 h, rat, 10 mg/kg p.o., read-out: Inhibitory rate.
Setting [6] is: po, 1 h, rat, 10 mg/kg p.o., read-out: Inhibitory rate.

Structures can show the parent of a compound that is named as a salt.

As for `O=C(O)/C=C\C(=O)O.O=C(O)/C=C\C(=O)O.OCCCN1CCN(c2cc(-c3ccc(F)cc3)c3ccccc3n2)CC1` [B, 2-[4-(3-hydroxypropyl)-1-piperazinyl]-4-(4-fluorophenyl)quinoline dimaleate], the figures for the inhibition in vivo at 10 mg/kg in assay [1] (setting [5]) and in assay [3] (setting [6]) were 61.7% and 69.2%, respectively. Further, the Ulcer index in assay [1] (rat, 10 mg/kg p.o.) turned out to be 7.4 ± 1.2 mm; in assay [3] (rat, 10 mg/kg p.o.), 21.9 ± 12.1 mm. This molecule also registered an Inhibitory rate in assay [2] (100 mg/kg p.o.) of 59.4%.

For the molecule `Clc1ccc(-c2cc(N3CCNCC3)nc3ccccc23)cc1.O=C(O)/C=C\C(=O)O` [C, 2-(1-piperazinyl)-4-(4-chlorophenyl)quinoline maleate], the inhibition in vivo at 10 mg/kg worked out at 65.6% in assay [1] (setting [5]) and 87.4% in assay [3] (setting [6]). The Ulcer index in assay [1] (rat, 10 mg/kg p.o.) was 8.5 ± 2.9 mm; in assay [3] (rat, 10 mg/kg p.o.), 4.5 ± 3.7 mm. Besides, the Inhibitory rate in assay [2] (100 mg/kg p.o.) was 64.3%.

Take `CN/C(=N/CCSCc1nc[nH]c1C)NC#N` [Cimetidine, reference compound]: the Inhibitory rate in assay [4] (50 mg/kg p.o.) came to 0%; in assay [4] (100 mg/kg p.o.), 9.1%; in assay [4] (200 mg/kg p.o.), 42.4%; in assay [4] (500 mg/kg p.o.) it was 75.8%. For the same molecule, the Ulcer index is 3.3 ± 0.3 in assay [4] (50 mg/kg p.o.); 3 ± 0.5 in assay [4] (100 mg/kg p.o.); 1.9 ± 0.4 in assay [4] (200 mg/kg p.o.); 0.8 ± 0.2 in assay [4] (500 mg/kg p.o.); 15.1 ± 2.9 mm in assay [1] (rat, 20 mg/kg p.o.); 23.9 ± 8.2 mm in assay [3] (rat, 100 mg/kg p.o.). Further, the inhibition in vivo at 20 mg/kg in assay [1] (Rattus norvegicus, po, 20 h, read-out: Inhibitory rate) stood at 39.1%. Besides, the “preventive effect on the stress-induced ulceration (in words)” value in assay [1] (rat, 20 mg/kg p.o.) is on record as “did not exhibit any significant effect”. Also, in assay [3] (Rattus norvegicus, po, 1 h, read-out: Inhibitory rate), the inhibition in vivo at 100 mg/kg was 25.1%. Further, the “protective effect on the ethanol-induced ulceration (in words)” value in assay [3] (rat, 100 mg/kg p.o.) is listed as “did not exhibit any significant protective effect”.

Regarding `CCN1CCN(c2cc(-c3ccc(Cl)cc3)c3ccccc3n2)CC1.O=C(O)/C=C\C(=O)O.O=C(O)/C=C\C(=O)O` [D, 2-(4-ethyl-1-piperazinyl)-4-(4-chlorophenyl)quinoline dimaleate], the inhibition in vivo at 10 mg/kg came out at 54% in assay [1] (setting [5]) and 89% in assay [3] (setting [6]). Also, the Ulcer index worked out at 13.4 ± 2.1 mm in assay [1] (rat, 10 mg/kg p.o.) and 8.6 ± 4.5 mm in assay [3] (rat, 10 mg/kg p.o.). Also, the Inhibitory rate in assay [2] (100 mg/kg p.o.) is on record as 45.2%.

On to `Cc1ccc(-c2cc(N3CCN(CCO)CC3)nc3ccccc23)cc1.O=C(O)/C=C\C(=O)O.O=C(O)/C=C\C(=O)O` [E, 2-[4-(2-hydroxyethyl)-1-piperazinyl]-4-(4-methylphenyl)quinoline dimaleate], for which the values for the inhibition in vivo at 10 mg/kg in assay [1] (setting [5]) and in assay [3] (setting [6]) were 69.7% and 64.4%, respectively. Also, the Ulcer index was 11.8 ± 4.6 mm in assay [1] (rat, 10 mg/kg p.o.) and 12.0 ± 2.3 mm in assay [3] (rat, 10 mg/kg p.o.). In assay [2] (100 mg/kg p.o.), this molecule yielded an Inhibitory rate of 51.3%.

Consider `O=C(O)/C=C\C(=O)O.O=C(O)/C=C\C(=O)O.OCCN1CCN(c2cc(-c3ccc(C(F)(F)F)cc3)c3ccccc3n2)CC1` [F, 2-[4-(2-hydroxyethyl)-1-piperazinyl]-4-(4-trifluoromethylphenyl)quinoline dimaleate], for which the inhibition in vivo at 10 mg/kg in assay [1] (setting [5]) amounted to 41.6%; in assay [3] (setting [6]), 87.2%. For the same molecule, the Ulcer index in assay [1] (rat, 10 mg/kg p.o.) amounted to 19.8 ± 2.0 mm; in assay [3] (rat, 10 mg/kg p.o.) it was 6.7 ± 1.8 mm.

As to `O=C(O)/C=C\C(=O)O.O=C(O)/C=C\C(=O)O.OCCN1CCN(c2cc(-c3ccc(Cl)cc3)c3ccccc3n2)CC1` [G, 2-[4-(2-hydroxyethyl)-1-piperazinyl]-4-(4-chlorophenyl)quinoline dimaleate], the inhibition in vivo at 10 mg/kg in assay [1] (setting [5]) worked out at 36.4%; in assay [3] (setting [6]), 76.1%. For the same molecule, the Ulcer index in assay [1] (rat, 10 mg/kg p.o.) worked out at 18.5 ± 6.9 mm; in assay [3] (rat, 10 mg/kg p.o.) it was 10.8 ± 6.3 mm.

With `FC(F)(F)c1cccc(-c2cc(N3CCNCC3)nc3ccccc23)c1.O=C(O)/C=C\C(=O)O.O=C(O)/C=C\C(=O)O` [H, 2-(1-piperazinyl)-4-(3-trifluoromethylphenyl)quinoline dimaleate], the inhibition in vivo at 10 mg/kg came to 4.3% in assay [1] (setting [5]) and 84.3% in assay [3] (setting [6]). Further, the Ulcer index was 24.7 ± 3.6 mm in assay [1] (rat, 10 mg/kg p.o.) and 7.1 ± 1.9 mm in assay [3] (rat, 10 mg/kg p.o.).

With `CCN1CCN(c2cc(-c3cccc(C(F)(F)F)c3)c3ccccc3n2)CC1.O=C(O)/C=C\C(=O)O.O=C(O)/C=C\C(=O)O` [I, 2-(4-ethyl-1-piperazinyl)-4-(3-trifluoromethylphenyl)quinoline dimaleate], the inhibition in vivo at 10 mg/kg amounted to 20.1% in assay [1] (setting [5]) and 63.5% in assay [3] (setting [6]). The Ulcer index in assay [1] (rat, 10 mg/kg p.o.) came to 27.1 ± 2.2 mm; in assay [3] (rat, 10 mg/kg p.o.), 16.5 ± 3.9 mm.

`CN(C)CCCN1c2ccccc2CCc2ccccc21` [Imipramine hydrochloride, reference compound]: the results for the Inhibitory rate in assay [2] (10 mg/kg p.o.), in assay [2] (30 mg/kg p.o.) and in assay [2] (100 mg/kg p.o.) were 29.5%, 69.3% and 94.5%, respectively.

Regarding `O=C(O)/C=C\C(=O)O.O=C(O)/C=C\C(=O)O.OCCN1CCN(c2cc(-c3cccc(C(F)(F)F)c3)c3ccccc3n2)CC1` [J, 2-[4-(2-hydroxyethyl)-1-piperazinyl]-4-(3-trifluoromethylphenyl)quinoline dimaleate], the inhibition in vivo at 10 mg/kg in assay [1] (setting [5]) is -2.7%; in assay [3] (setting [6]) it was 74.8%. Besides, the Ulcer index is reported as 34.8 ± 3.9 mm in assay [1] (rat, 10 mg/kg p.o.) and 9.0 ± 4.2 mm in assay [3] (rat, 10 mg/kg p.o.).
